# Reference: patent US20240059693A1, “FUSED BICYCLIC PYRAZOLE DERIVATIVES AND METHODS OF USE THEREOF FOR THE TREATMENT OF HERPESVIRUSES” (Merck Sharp & Dohme LLC, priority 2020, published 2024)
# Where two headings read alike, the source gives them in different places.
# What was measured:
# [1] = target: T1, Human cytomegalovirus DNA polymerase (Human cytomegalovirus, UniProt P08546); test: HCMV polymerase assay (AlphaLISA); assay type: biochemical; settings: HCMV DNA polymerase 0.2 nM, 60 minutes at 37° C.; read-out: CMV (IC50)
# T1 construct: made in house; host or cells: SF21 insect cells (baculovirus vector)
# T1 sequence (P08546 whole entry): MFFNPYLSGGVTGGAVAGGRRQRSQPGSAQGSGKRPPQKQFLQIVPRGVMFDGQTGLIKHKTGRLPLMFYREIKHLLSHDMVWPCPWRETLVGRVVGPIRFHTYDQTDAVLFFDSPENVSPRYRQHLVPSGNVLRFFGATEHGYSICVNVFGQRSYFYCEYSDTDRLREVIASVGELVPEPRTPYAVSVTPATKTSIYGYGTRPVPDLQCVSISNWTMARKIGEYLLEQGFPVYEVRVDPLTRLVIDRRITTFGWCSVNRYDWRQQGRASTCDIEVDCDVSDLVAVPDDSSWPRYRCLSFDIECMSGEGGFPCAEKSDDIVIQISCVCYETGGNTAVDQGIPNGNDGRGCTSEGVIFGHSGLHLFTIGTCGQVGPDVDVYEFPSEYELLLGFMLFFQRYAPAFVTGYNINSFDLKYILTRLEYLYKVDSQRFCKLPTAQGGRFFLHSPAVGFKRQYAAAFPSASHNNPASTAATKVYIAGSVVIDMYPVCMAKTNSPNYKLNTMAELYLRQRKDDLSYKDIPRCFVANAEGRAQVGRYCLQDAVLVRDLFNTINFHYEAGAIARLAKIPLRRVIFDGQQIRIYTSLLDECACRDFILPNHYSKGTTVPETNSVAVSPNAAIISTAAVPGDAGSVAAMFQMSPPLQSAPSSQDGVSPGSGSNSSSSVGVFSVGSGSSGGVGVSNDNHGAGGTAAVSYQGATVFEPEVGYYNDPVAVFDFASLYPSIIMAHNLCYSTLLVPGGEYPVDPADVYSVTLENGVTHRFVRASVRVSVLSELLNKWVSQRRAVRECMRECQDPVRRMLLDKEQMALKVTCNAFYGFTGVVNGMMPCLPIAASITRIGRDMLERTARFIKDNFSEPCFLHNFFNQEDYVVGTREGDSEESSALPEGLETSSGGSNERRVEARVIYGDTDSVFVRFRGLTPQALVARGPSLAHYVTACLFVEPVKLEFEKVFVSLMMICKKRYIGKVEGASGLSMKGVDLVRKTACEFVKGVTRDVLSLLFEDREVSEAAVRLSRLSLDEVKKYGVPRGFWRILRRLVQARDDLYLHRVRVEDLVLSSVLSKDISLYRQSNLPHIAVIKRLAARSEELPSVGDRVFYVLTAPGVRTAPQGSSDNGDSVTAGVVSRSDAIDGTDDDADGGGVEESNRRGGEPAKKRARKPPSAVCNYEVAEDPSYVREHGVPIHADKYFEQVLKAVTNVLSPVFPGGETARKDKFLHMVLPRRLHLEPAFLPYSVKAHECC
# Outline: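 Baculovirus/SF21-expressed polymerase (HCMV 0.2 nM; VZV 0.4 nM) pre-incubated 30 min at room temperature with compound in HEPES pH 7.5 buffer, then 60 min at 37 °C with 1.6 nM DIG-primer/template, sub-nM to 24 nM dNTPs and 0.8 nM biotin-dUTP. AlphaLISA detection; IC50 from 4-parameter fit.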
# [2] = target: T2, varicella zoster virus DNA polymerase (Varicella-zoster virus, UniProt P09252); test: VZV polymerase assay (AlphaLISA); assay type: biochemical; settings: VZV DNA polymerase 0.4 nM, 60 minutes at 37° C.
# T2 construct: made in house; host or cells: SF21 insect cells (baculovirus vector)
# T2 sequence (P09252 whole entry): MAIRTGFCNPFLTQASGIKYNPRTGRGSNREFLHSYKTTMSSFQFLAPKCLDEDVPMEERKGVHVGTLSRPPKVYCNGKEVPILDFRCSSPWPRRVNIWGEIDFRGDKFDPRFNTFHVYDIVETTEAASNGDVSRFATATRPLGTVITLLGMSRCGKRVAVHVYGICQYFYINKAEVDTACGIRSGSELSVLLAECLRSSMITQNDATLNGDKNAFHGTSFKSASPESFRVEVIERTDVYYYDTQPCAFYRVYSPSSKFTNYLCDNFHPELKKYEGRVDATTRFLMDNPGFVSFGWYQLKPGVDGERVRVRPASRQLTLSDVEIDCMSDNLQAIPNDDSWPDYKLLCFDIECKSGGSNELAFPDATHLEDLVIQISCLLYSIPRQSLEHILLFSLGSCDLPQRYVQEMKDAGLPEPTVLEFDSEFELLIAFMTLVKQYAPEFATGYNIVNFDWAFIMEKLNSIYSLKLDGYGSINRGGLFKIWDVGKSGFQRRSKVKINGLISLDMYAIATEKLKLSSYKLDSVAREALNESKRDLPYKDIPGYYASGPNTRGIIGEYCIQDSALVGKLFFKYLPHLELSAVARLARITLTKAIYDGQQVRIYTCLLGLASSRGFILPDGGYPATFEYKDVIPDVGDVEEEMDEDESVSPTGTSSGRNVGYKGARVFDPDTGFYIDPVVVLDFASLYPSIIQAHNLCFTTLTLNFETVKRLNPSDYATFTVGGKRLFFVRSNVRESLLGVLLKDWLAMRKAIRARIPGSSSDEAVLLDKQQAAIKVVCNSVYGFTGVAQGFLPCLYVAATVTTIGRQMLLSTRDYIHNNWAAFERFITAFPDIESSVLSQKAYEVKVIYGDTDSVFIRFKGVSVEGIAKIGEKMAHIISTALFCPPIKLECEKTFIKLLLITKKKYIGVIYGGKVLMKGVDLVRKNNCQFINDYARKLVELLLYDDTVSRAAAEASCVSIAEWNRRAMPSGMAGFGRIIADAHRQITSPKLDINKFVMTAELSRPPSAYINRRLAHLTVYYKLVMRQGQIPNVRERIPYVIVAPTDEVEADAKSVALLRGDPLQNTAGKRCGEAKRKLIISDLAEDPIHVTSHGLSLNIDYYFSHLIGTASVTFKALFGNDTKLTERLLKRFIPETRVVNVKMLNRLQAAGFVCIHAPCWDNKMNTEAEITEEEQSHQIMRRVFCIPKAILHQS
# Experimental: Human cytomegalovirus and varicella zoster virus DNA polymerases were expressed via baculovirus vector in SF21 cells and purified. Heterodimeric nucleic acid substrate used in the herpesvirus polymerase reactions was generated by annealing a 59-mer template to a 17-mer digoxigenin-labeled primer. Polymerase (HCMV final concentration of 0.2 nM; VZV final concentration of 0.4 nM) was combined with an inhibitor compound or DMSO in assay buffer (10 mM HEPES, pH 7.5, 25 mM KCl, 25 mM NaCl, 5 mM MgCl2, 5% glycerol, 0.67 mg/ml bovine serum albuminutes, and 1 mM tris(2-carboxyethyl)phosphine), and this mixture was pre-incubated for 30 minutes at room temperature in 384-well microtiter plates. The polymerization reaction was initiated by the addition of template/primer substrate (final concentration: 1.6 nM), and dNTPs (final concentration: 24 nM dCTP, 24 nMdGTP, 16 nM dATP, 16 nM dTTP, and 0.8 nM biotin-dUTP). After 60 minutes incubation at 37° C., reactions were terminated with quench buffer (25 mM HEPES pH 7.5, 100 mM NaCl, 0.25% Tween-20, 12 mM EDTA, and 1 mg/ml bovine serum albumin). Incorporation of biotinylated UTP was detected with 2.5-ug/ml anti-DIG AlphaLISA acceptor beads and 5-10 ug/ml streptavidin AlphaLISA donor beads (Perkin Elmer). Compound effects were normalized to the window defined by the controls (DMSO only and pre-quenched wells) and were fit using a 4-parameter algorithm to report an IC50.
# [3] = system: HCMV Strain AD169; test: Viral qPCR assay, HCMV in MRC-5 cells; assay type: cell-based, Human cytomegalovirus; settings: read-out: CMV MRC5 Cell (EC50)
# Outline: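 MRC-5 cells infected in suspension with HCMV AD169 (0.05-0.1 pfu/cell) and added to 10-point 3-fold compound dilutions, in growth media or media with 50% FBS. After ~72 h at 37 °C, lysates analysed by TaqMan qPCR against a plasmid standard curve, viral copies normalised to PPIA or not. EC50 from 4-parameter fit.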
# [4] = system: HSV-1 Strain F; test: Viral qPCR assay, HSV-1 in Vero cells; assay type: cell-based, Herpes Simplex Virus type 1; settings: read-out: HSV1 VERO Cell (EC50)
# Experimental: (§1) MRCS cells, Vero cells, and MeWo cells were obtained from ATCC and were maintained at 37° C./5% CO2/90% relative humidity in Minimal Essential Medium with 10% fetal bovine serum, […] L-glutamine, 100 units/ml penicillin and 100 ug/ml streptomycin. Assay plates were prepared by dispensing compounds dissolved in DMSO into wells of 384 well collagen-coated plates using an ECHO acoustic dispenser. Each compound was tested in a 10-point, serial 3-fold dilution. Controls included uninfected cells and infected cells treated only with DMSO. Assays were initiated by mixing selected cells, in suspension, with virus, and dispensing 50 μl/well infected cells to pre-plated compounds. Plates were incubated at 37° C./5% CO2/90% relative humidity for ˜72 hrs to permit genomic replication, and infected cells were lysed by the addition of an equal volume of lysis buffer (10 mM Tris-HCl, pH8, 50 mM KCl, 2 mM MgCl2, 0.45% NP-40, 0.45% Tween-20, and 100 μg/ml proteinase K). An aliquot of the lysate was transferred to a 384-well PCR plate and incubated at 56° C. for 1 hour and then at 95° C. for 10 min. Levels of a viral gene and of the cellular control, PPIA (Thermo Fisher Assay ID=Hs04194521_s1), were measured in separate 10 μL qPCR assays using TaqMan® Gene Expression Master Mix (Applied Biosystems), and an 7900HT Fast Real-Time PCR System with 384-Well Block Module. 7-point, serial 10-fold dilutions of a plasmid standard were run on each plate to generate a standard curve, and genome copies numbers were calculated by plotting experimental Ct onto linear regression of the standard curve. Viral genome copy numbers were normalized by cellular control copy number, and compound effects were normalized to the window defined by the controls. Calculated % effects were fit using a 4-parameter algorithm, and EC50 was reported.
# as §1, with “gene” for “gene and of the cellular control, PPIA (Thermo Fisher Assay ID=Hs04194521_s1),”, “in” for “in separate”, “Compound effects on viral” for “Viral”, “number” for “numbers were normalized by cellular control copy number, and compound effects”
# VZV: Strain Street was maintained as an infected cell stock in MRC-5 cells. It was assayed in MeWo or MRCS cells and was used at 0.04-0.1 pfu/cell. The assays were performed in growth medium. Primer-probe set was Thermo Fisher Assay ID=AIPAEXQ. HSV-1: Strain F Street was assayed in Vero or MRCS cells and was used at 0.0005-0.004 pfu/cell in growth medium. Primer-probe set was Thermo Fisher Assay ID=AIBJZIB
# [5] = system: HSV2; test: Viral qPCR assay, HSV2 in Vero cells; assay type: cell-based, Herpes Simplex Virus type 2; settings: read-out: HSV2 VERO Cell (EC50)
# Experimental: as §1
# as §1, with “gene” for “gene and of the cellular control, PPIA (Thermo Fisher Assay ID=Hs04194521_s1),”, “in” for “in separate”, “Compound effects on viral” for “Viral”, “number” for “numbers were normalized by cellular control copy number, and compound effects”
# [6] = Human betaherpesvirus 5, AD169, MRC5, 72 h
# [7] = Human alphaherpesvirus 1, Vero, 72 h
# [8] = Human alphaherpesvirus 2, Vero, 72 h
SMILES,IC50 [1],IC50 [2],"EC50 ([3]; MRC5 cells, ~72 hrs)",EC50 ([4]; ~72 hrs),EC50 ([5]; ~72 hrs),"EC50 [3, 6]","EC50 [4, 7]","EC50 [5, 8]"
"CCC1c2c(c(C(=O)NCc3ccc(Cl)cc3)nn2C)CN1CC1CCC(=O)N1 (single isomer, unassigned) [Compound 106]",108 nM,30.5 nM,1170 nM,1060 nM,1550 nM,,,
"CC1c2c(c(C(=O)NCc3ccc(Cl)cc3)nn2C)CN1C[C@H]1CCC(=O)N1 (single isomer, unassigned) [Compound 107]",4540 nM,1500 nM,99000 nM,73800 nM,90300 nM,,,
"Cn1nc(C(=O)NCc2ccc(Cl)cc2)c2c1CC(CC1CCC(=O)N1)C2 (single isomer, unassigned) [Compound 130]",4.44 nM,4.44 nM,1200 nM,3840 nM,4120 nM,,,
"O=C1CC[C@H](CC2Cc3c(C(=O)NCc4ccc(Cl)cc4)nn(C4CN(CC5CC5)C4)c3C2)N1 (single isomer, unassigned) [Compound 136]",119 nM,16.5 nM,,,,980 nM,3520 nM,2520 nM
"Cn1nc(C(=O)NCc2ccc(Cl)cc2)c2c1CC(O)(CC1CCC(=O)N1)C2 (single isomer, unassigned) [Compound 140]",63.2 nM,26.5 nM,2660 nM,439 nM,705 nM,,,
O=C1CC[C@H](CN2Cc3c(C(=O)NCc4ccc(Cl)cc4)nn(CCN4CC(F)C4)c3C2)N1 [Compound 4],52.6 nM,32.6 nM,,,,2980 nM,26100 nM,
CC1(C(=O)NCCn2nc(C(=O)NCc3ccc(Cl)cc3)c3c2CN(C[C@H]2CCC(=O)N2)C3)CC1 [Compound 26],16.2 nM,10.2 nM,,,,2630 nM,66100 nM,
CC(C)n1nc(C(=O)NCc2ccc(Cl)cc2)c2c1CN(C[C@H]1CCC(=O)N1)C2 [Compound 35],54.8 nM,31 nM,,,,2670 nM,1850 nM,581 nM
O=C1CC[C@H](CN2Cc3c(C(=O)NCc4ccc(Cl)cc4)nn(CC4(F)COC4)c3C2)N1 [Compound 37],23.3 nM,60.8 nM,,,,3280 nM,15500 nM,23400 nM
O=C1CC[C@H](CN2Cc3c(C(=O)NCc4ccc(Cl)cc4)nn(CC4CCO4)c3C2)N1 (stereo partly drawn) [Compound 39],54.9 nM,45.2 nM,,,,1580 nM,12400 nM,16200 nM
CCC1(Cn2nc(C(=O)NCc3ccc(Cl)cc3)c3c2CN(C[C@H]2CCC(=O)N2)C3)COC1 [Compound 40],89.1 nM,90.8 nM,,,,5300 nM,23300 nM,34500 nM
O=C1CC[C@H](CN2Cc3c(C(=O)NCc4ccc(Cl)cc4)nn(CC4(CF)COC4)c3C2)N1 [Compound 41],111 nM,23.7 nM,,,,6320 nM,20400 nM,30600 nM
O=C1CC[C@H](CN2Cc3c(C(=O)NCc4ccc(Cl)cc4)nn(Cc4nccs4)c3C2)N1 [Compound 48],69.7 nM,118 nM,,,,4020 nM,,
CN(CCn1nc(C(=O)NCc2ccc(Cl)cc2)c2c1CN(Cc1c(F)cncc1F)C2)C(=O)C1CCC1 [Compound 63],99.3 nM,76 nM,,,,,,
CN(CCn1nc(C(=O)NCc2ccc(Cl)cc2)c2c1CN(Cc1ccnc(F)c1)C2)C(=O)C1CCC1 [Compound 66],112 nM,48.6 nM,,,,,,
CN(CCn1nc(C(=O)NCc2ccc(Cl)cc2)c2c1CN(Cc1ccncc1F)C2)C(=O)C1CCC1 [Compound 68],123 nM,59.1 nM,,,,,,
O=C(NCc1ccc(Cl)cc1)c1nn(CCNC(=O)C2CCC2)c2c1CN(Cc1ccncc1F)C2 [Compound 69],173 nM,84.9 nM,,,,,,
CC1c2c(c(C(=O)NCc3ccc(Cl)cc3)nn2C)CN1C[C@@H]1CCC(=O)N1 (stereo partly drawn) [Compound 101],531 nM,391 nM,32700 nM,29100 nM,,,,
Cn1nc(C(=O)NCc2ccc(Cl)cc2)c2c1C(CO)N(C[C@H]1CCC(=O)N1)C2 (stereo partly drawn) [Compound 122],195 nM,24.1 nM,1310 nM,860 nM,,,,
Cn1nc(C(=O)NCc2ccc(Cl)cc2)c2c1C1(CCC1)N(C[C@@H]1CCC(=O)N1)C2 [Compound 123],1210 nM,898 nM,,,,14600 nM,13300 nM,
C[C@@H]1c2c(C(=O)NCc3ccc(Cl)cc3)nn(C)c2CN1C[C@H]1CCC(=O)N1 [Compound 125],1370 nM,,2980 nM,4980 nM,8040 nM,,,
CN1CC(n2nc(C(=O)NCc3ccc(Cl)cc3)c3c2CC(C[C@@H]2CCC(=O)N2)C3)C1 (stereo partly drawn) [Compound 138],170 nM,,1870 nM,4310 nM,5900 nM,,,
Cn1nc(C(=O)NCc2ccc(Cl)cc2)c2c1CC(O)(C[C@H]1CCC(=O)N1)C2 (stereo partly drawn) [Compound 139],50500 nM,,99000 nM,99000 nM,33000 nM,,,
